Laboratory results taken from patent publication US7378406B2, “Use of antiprogestins for prophylaxis and treatment of hormone-dependent diseases” (Schering AG, priority 2000, dated 2008).

Tests used:
[1] = system: DMBA-induced mammary carcinoma of the rat; assay: DMBA-induced breast cancer model in rat (therapy experiment/dose-response study); assay type: in vivo, rat (female Sprague-Dawley)
Method: Immature female Sprague-Dawley rats (49-51 days old; 10 animals/group) were used in this study. Mammary tumors were induced by a single oral administration of 10 mg 7,12-dimethylbenz[a]anthracene (DMBA, Serva/Heidelberg). Rats with at least one established tumor with a size of more than 150 mm^2 were treated for 4 weeks by: 1) solvent control, 2) ovariectomy at treatment start, 3) antiprogestin (I), 0.5 mg/kg s.c., 4) antiprogestin (I), 2 mg/kg s.c., 5) antiprogestin (I), 5 mg/kg s.c., 6) antiprogestin (I), 10 mg/kg s.c., and 7) onapristone, 5 mg/kg, s.c., daily. As a parameter for growth inhibition the change of tumor area (in % with respect to initial tumor size) determined by weekly caliper measurements was used. For statistical analysis of intergroup differences of mean values the Kruskal-Wallis-test was used.

[2] = system: NMU-induced mammary carcinoma of the rat; assay: NMU-induced breast cancer model in rat (therapy experiment); assay type: in vivo, rat (female Sprague-Dawley); details: 4 weeks
Method: Tumors were induced by a single intravenous injection of NMU (nitrosomethylurea, 50 mg/kg) in female Sprague-Dawley rats (obtained from Tierzucht Schönwalde, age 50-55 days). Starting 10 days later, rats with at least one established tumor were treated for 4 weeks by: 1) solvent control, 2) ovariectomy at treatment start, 3) antiprogestin (I), 1.0 mg/kg/day, 4) antiprogestin (I), 0.5 mg/kg/day and 5) onapristone, 5 mg/kg/day. As a parameter for growth inhibition the change of tumor area (in % of initial tumor size) determined by weekly caliper measurements was used. For statistical analysis of intergroup differences of mean values the Kruskal-Wallis-test was used.

[3] = system: MCF7 breast cancer cells; assay: MCF7 human xenograft (therapy experiment); assay type: in vivo, human xenograft in Fox Chase scid mice; details: 10 mg/kg s.c.; scid mice with estradiol pellets
Method: (§1) Female Fox Chase scid mice (M&B) were supplemented with estradiol pellets (Innovative Research of America). MCF7 breast cancer cells, obtained from cell culture and suspended in matrigel, were implanted s.c. in the inguinal region of the mice. Treatment was started when the tumors were approximately 25 mm^2 in size. Treatment was continued until progression of the tumors. Experimental groups were: 1) control (vehicle), 2) ovariectomy, 3) antiprogestin (I), 10 mg/kg s.c. Tumor area was determined by caliper measurements. The Kruskal Wallis test was used for statistical analysis of intergroup differences of mean values.

[4] = Bioavailability (general statement); assay type: in vivo; details: oral administration
[5] = Further endocrine side effects (general statement)
[6] = system: NMU-induced mammary carcinoma of the rat; assay: NMU-induced breast cancer model in rat (prevention experiment); assay type: in vivo, rat (female Sprague-Dawley); details: 3 mg/kg s.c., 6 days/week, start 10 days after NMU; end of experiment, after 27 weeks
Method: Tumors were induced by a single intravenous injection of NMU (nitrosomethylurea, 50 mg/kg) in female Sprague-Dawley rats (obtained from Tierzucht Schonwalde, age 50-55 days). Treatment was started 10 days later as followed: 1) solvent control, 2) ovariectomy at treatment start, 3) tamoxifen, 3 mg/kg s.c., 4) antiprogestin (I), 3 mg/kg, s.c., 5) letrozole, 3 mg/kg s.c., 6) raloxifen, 3 mg/kg s.c., 6 days/week. Rats were examined weekly for breast tumors by palpation. As a parameter for the prophylactic effect the tumor incidence (number of animals/group with tumors in %) was determined. For a further description and evaluation of DMBA and NMU prevention models, see R. G. Metha, European Journal of Cancer 36 (2000), pp. 1275-1282.

[7] = system: T47D breast cancer cells; assay: T47D human xenograft (therapy experiment); assay type: in vivo, human xenograft in Fox Chase scid mice; details: 10 mg/kg s.c.; scid mice with estradiol pellets
Method: as §1, with “T47D” for “MCF7”, “s.c.Tumor” for “s.c. Tumor”

[8] = system: DMBA-induced mammary carcinoma of the rat; assay: DMBA-induced breast cancer model in rat (prevention experiment); assay type: in vivo, rat (female Sprague-Dawley); details: 6 days/week, start 20 days after DMBA, end of experiment
Method: Immature female Sprague-Dawley rats (49-51 days old; 10 animals/group) were used in this study. The carcinogen 7,12-dimethylbenz[a]anthracene (DMBA) was given as a single oral administration (10 mg). Treatment was started 20 days later as followed: 1) solvent control, 2) ovariectomy at treatment start, 3) tamoxifen, 1 mg/kg s.c., 4) antiprogestin (I), 3 mg/kg, s.c., 6 days/week. Rats were examined weekly for breast tumors by palpation. As a parameter for the prophylactic effect the tumor incidence (number of animals/group with tumors in %) was determined. For a further description and evaluation of DMBA and NMU prevention models, see R. G. Metha, European Journal of Cancer 36 (2000), pp. 1275-1282.

## CN(C)c1ccc([C@H]2C[C@]3(C)[C@@H](CC[C@]3(O)CCCO)[C@@H]3CCC4=CC(=O)CCC4=C32)cc1 [Onapristone, onapristone, reference compound]
[1]; 5 mg/kg s.c. daily, 4 weeks
  tumor growth inhibition relative to antiprogestin (I): distinctly less effective than antiprogestin (I) at comparable doses
[2]; 5 mg/kg/day
  tumor growth inhibition relative to antiprogestin (I) at 0.5 mg/kg: distinctly less effective than antiprogestin (I)

## CC(=O)c1ccc([C@H]2C[C@@]3(C)[C@@H](CC[C@@]3(O)C(F)(F)C(F)(F)F)[C@@H]3CCC4=CC(=O)CCC4=C32)cc1 [antiprogestin (I), 11β-(4-acetylphenyl)-17β-hydroxy-17α-(1,1,2,2,2-pentafluoroethyl)-estra-4,9-dien-3-one]
[3]
  tumor growth (tumor area): inhibition of tumor growth, almost comparable to the effect of conventional estrogen deprivation therapy (ovariectomy)
[4]
  bioavailability: high
[1]; 0.5 mg/kg s.c. daily, 4 weeks
  tumor growth (change of tumor area) compared with the control: did not significantly prevent the tumor from growing
[1]; 2 mg/kg s.c. daily, 4 weeks
  rats with complete tumor regression: 50%
  tumor growth (change of tumor area), dose-response: maximal growth inhibition
[1]; 10 mg/kg s.c. daily, 4 weeks (highest dose)
  tumor growth (change of tumor area), dose-response: comparable to that of 2 mg/kg
[1]; doses of or above 2 mg/kg s.c. daily, 4 weeks
  tumor growth (change of tumor area) compared with the control: significant inhibition of tumor growth
[5]
  further endocrine side effects, e.g. androgen, estrogen or antiglucocorticoid activity: only very weak, if present at all
[6]
  tumor incidence (number of animals/group with tumors in %): 10%
[2]; 0.5 mg/kg/day
  tumor growth (change of tumor area) compared with the control: significant inhibition of tumor growth
[2]; 1.0 mg/kg/day
  tumor growth (change of tumor area) compared with the control: significant inhibition of tumor growth
[7]
  tumor growth (tumor area): inhibition of tumor growth, almost comparable to the effect of conventional estrogen deprivation therapy (ovariectomy)
[8]; 3 mg/kg s.c., after 22 weeks
  tumor incidence (number of animals/group with tumors in %): 10%

## CC/C(=C(\c1ccccc1)c1ccc(OCCN(C)C)cc1)c1ccccc1 [tamoxifen, reference compound]
[8]; 1 mg/kg s.c.
  tumor incidence (number of animals/group with tumors in %): 60%
